The results in this text go back to patent US20240279278A1, “NMU RECEPTOR 2 AGONISTS” (Boehringer Ingelheim International GmbH, priority 2023, published 2024).

One data set concerns the target T1, human NMUR1 receptor (Homo sapiens, UniProt Q9HB89).
T1 construct: host or cells: CHO-K1
T1 sequence (Q9HB89 24-426 limits assumed): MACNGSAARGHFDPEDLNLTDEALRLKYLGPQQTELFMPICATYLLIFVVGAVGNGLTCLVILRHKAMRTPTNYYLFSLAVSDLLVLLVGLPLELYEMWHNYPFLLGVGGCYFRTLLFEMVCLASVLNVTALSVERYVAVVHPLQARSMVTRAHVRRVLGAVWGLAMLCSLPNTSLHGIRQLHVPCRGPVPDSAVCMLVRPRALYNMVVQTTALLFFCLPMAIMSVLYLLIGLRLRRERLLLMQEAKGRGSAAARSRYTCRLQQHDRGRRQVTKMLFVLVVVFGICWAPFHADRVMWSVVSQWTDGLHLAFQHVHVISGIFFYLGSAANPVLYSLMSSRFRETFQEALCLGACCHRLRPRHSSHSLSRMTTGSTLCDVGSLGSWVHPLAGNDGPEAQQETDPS
Briefly: Radioligand binding competition assay (RLB), human NMUR1 receptor binding (SPA, [125I]-Neuromedin U-25). Conditions: CHO-K1 hNMUR1 cell membranes, 4 hours at RT. From the text:
Example 2: Radioligand Binding Competition Assay (RLB) Human NMUR1 Receptor Binding 1) Membranes The test is based on membranes prepared from a human NMUR1/Apoaequorin Stable Cell Line (Creative Biogene, Cat. No. CSC-RG1308). Cell Line Description: CHO-NMUR1 cell line is clonally-derived from a CHO-K1 cell line, which has been transfected with a bicistronic expression plasmid containing the sequence coding for the human neuromedin U receptor 1 (NM_006056.4, 180 to 1391). Mosaic-ID: CL16550614 Membrane preparation: Cells were broken by nitrogen cavitation (900 psi, 1 hour). Intact cells were removed by centrifugation (400 rcf, 10 minutes, 4° C.) before the crude membrane fraction was collected by ultracentrifugation (20.000 rcf, 1 hour, 4° C.). 2) Human NMUR1 Receptor Binding Assay (Radioligand: [125l]-Neuromedin U-25) In this Scintillation Proximity Assay (SPA) design, the membranes immobilize directly to the PVT-WGA-PEI type A beads (polyethyleneimine treated polyvinyltoluene beads coupled to wheatgerm agglutinin, Perkin Elmer) via interactions of wheat germ agglutinate and glycosylated membrane structures. Thereby the radioactively la-belled ligand, bound to NMUR1 receptors on the membrane, comes in close proximity to the solid scintillator of the PVT bead. Radioactive human neuromedin U-25 then stimulates the scintillant to emit light. In contrast, radioligand not bound to the receptor is too distant from the bead to elicit a signal. For the Scintillation Proximity Assay the CHO-K1 hNMUR1 cell membranes and SPA-beads are diluted to concentrations, which assure a robust signal to background ratio. The SPA incubation buffer consists of 25 mM Hepes (pH=7.0), 5 mM MgCl2, 1 mM CaCl2, 10 ug/mL Saponine and 0.1% bovine serum albumin and is used for all dilutions. Final assay setup in 96-well plate: 20 μL of 10× test compound dilutions+40 μL of 5× [125l]-Neuromedin U-25 (1× approx. 30 pM; 2000 μCi/mmol (μCi=microcurie))+60 μL membrane dilution (approx. 1.0 μg membrane protein)+80 μL SPA bead dilution (250 μg). The assay is incubated for 4 hours at RT, including controls for specific binding where no displacer is added and non-specific binding by adding unlabeled hNMU-25 at 100 nM. Bound radioactivity is determined by scintillation counting (MicroBeta Trilux 1450, Perkin Elmer, detection of 125I decay). […] The system assumes one binding site with no relevant radioligand depletion (<10%) and that the binding is reversible and at equilibrium. [formula] [formula]

Another data set is described as follows: physchem. It counts as physicochemical. Particulars: pH 7.5. On the procedure:
Example 6: Solubility Determination
Peptides (as TFA-salts) were weighed out in a filter unit (Mini-UniPrep Syringeless Filter 0.45 μm, Whatman PVDF), and 0.1 M phosphate buffer at pH 6 to 8 was added to achieve 10 mg/mL final peptide concentration. The peptides were dissolved by shaking the filter units horizontally at 350 rpm for 2 hours at room temperature. Samples were then filtered to remove any insoluble particles. Controls were prepared by weighing out the corresponding peptide solid material and dissolving it in an appropriate vehicle (e.g. buffer or DMSO) to a final concentration of 1 mg/mL. Both, the control and sample were analyzed by reversed phase chromatography. The area under the peak of the sample was compared to the control and the solubility was calculated based on that ratio. The pH was measured and recorded for each sample.

Another data set has as its target human NMUR2 receptor (Homo sapiens, UniProt Q9GZQ4). Briefly: IP1 Gq HTRF assay, activation of human NMUR2 in buffer. The class given is cell-based. Set-up: expressed in transfected cells; host or cells: CHO-K1. Particulars: for pEC50: CHO-K1 cells expressing human NMUR2, stimulation buffer with 0.1% BSA, read-out: EC50 (hNMUR2) buffer. An outline of the steps: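 IP-One HTRF competition (665/620 nm ratio) read after 1 h agonist exposure at 37 °C in pH 7.4 HEPES/HBSS stimulation buffer containing 50 mM LiCl, 0.1% BSA, 1% DMSO. Cells: CHO-K1 stably expressing human NMUR2 or NMUR1. EC50 by 4-parameter nonlinear regression of 8-point curves.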
For orientation: TR-FRET usually uses a lanthanide donor and a delayed reading to cut background.

pEC50, pKi: −log10 of the molar value. ≈ marks a conversion by molar mass, not a printed value. Residues, ends and D or L forms follow the SMILES beside them.

Sequence of human NMUR2 receptor (Q9GZQ4 whole entry): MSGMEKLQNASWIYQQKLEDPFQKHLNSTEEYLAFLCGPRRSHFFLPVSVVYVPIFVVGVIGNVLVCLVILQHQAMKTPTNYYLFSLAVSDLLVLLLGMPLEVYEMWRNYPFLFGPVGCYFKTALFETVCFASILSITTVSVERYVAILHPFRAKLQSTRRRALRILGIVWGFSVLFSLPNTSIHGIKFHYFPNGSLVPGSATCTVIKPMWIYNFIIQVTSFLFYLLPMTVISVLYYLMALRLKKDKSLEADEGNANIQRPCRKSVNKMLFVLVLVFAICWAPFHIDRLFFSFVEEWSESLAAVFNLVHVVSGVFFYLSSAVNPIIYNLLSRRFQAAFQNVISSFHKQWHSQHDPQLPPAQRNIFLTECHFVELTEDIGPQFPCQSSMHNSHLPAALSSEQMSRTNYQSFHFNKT

Broadly, the pKi is −log10 of the Ki, conventionally taken in molar units. The low end stands for a large Ki, the high end for a small Ki. By solubility is commonly meant the dissolved amount per volume that the medium holds. Higher therefore signals a readily soluble substance. A word on the pEC50: it is the EC50 on a negative log10 scale, so that one unit is a factor of ten. For `CCCC[C@H](NC(=O)[C@H](CC(C)C)N(C)C(=O)[C@H](Cc1ccccc1)NC(=O)[C@H](Cc1ccc(O)cc1)NC(=O)CN1CCN(CCNC(=O)CN(C)C(=O)CN(C)C(=O)CN(C)C(=O)CN(C)C(=O)CN(C)C(=O)CN(C)C(=O)CN(C)C(=O)CN(C)C(=O)CN(C)C(=O)CN(C)C(=O)CN(C)C(=O)CN(C)C(=O)CN(C)C(=O)CN(C)C(=O)CN(C)C(=O)CC[C@H](NC(=O)CC[C@H](NC(=O)CC[C@H](NC(=O)CCCCCCCCCCCCCCCCCCC(=O)O)C(=O)O)C(=O)O)C(=O)O)CC1)C(=O)N[C@@H](CCCN)C(=O)N1CCC[C@H]1C(=O)N[C@@H](CCCNC(=N)N)C(=O)NCC(N)=O` [Compound 1, C20DA-gGlu3-Sar15-AEPipAc-Tyr-Phe-NMeLeu-Nle-Orn-Pro-Arg-Gly-NH2] (HELM PEPTIDE1{[O=C(O)CCCCCCCCCCCCCCCCCCC(=O)[*:2]].[gGlu].[gGlu].[gGlu].[Sar].[Sar].[Sar].[Sar].[Sar].[Sar].[Sar].[Sar].[Sar].[Sar].[Sar].[Sar].[Sar].[Sar].[Sar].[O=C(CN1CCN(CCN[*:1])CC1)[*:2]].Y.F.[meL].[Nle].[Orn].P.R.G.[am]}$$$$V2.0), the pKi at human NMUR1 receptor was < 5.00. The molecule also showed a solubility at 2 h in “physchem” of 8200 µg/mL (≈ 2790 µM). At human NMUR2 receptor, the pEC50 was 8.85. For the same molecule, the “EC50 (hNMUR1)/EC50 (hNMUR2)” value on human NMUR2 receptor (selectivity for NMUR2 over NMUR1 from IP1 assay in buffer (Example 3)) came out at 635.
Regarding `CCCC[C@H](NC(=O)[C@H](CC(C)C)N(C)C(=O)[C@H](Cc1ccccc1)NC(=O)[C@H](Cc1ccc(O)cc1)NC(=O)CN1CCN(CCNC(=O)CN(C)C(=O)CN(C)C(=O)CN(C)C(=O)CN(C)C(=O)CN(C)C(=O)CN(C)C(=O)CN(C)C(=O)CN(C)C(=O)CN(C)C(=O)CN(C)C(=O)CN(C)C(=O)CN(C)C(=O)CN(C)C(=O)CN(C)C(=O)CN(C)C(=O)CC[C@H](NC(=O)CC[C@H](NC(=O)CC[C@H](NC(=O)CCCCCCCCCCCCCCCCCCC(=O)O)C(=O)O)C(=O)O)C(=O)O)CC1)C(=O)N[C@@H](CCCNC(=N)N)C(=O)N1CCC[C@H]1C(=O)N[C@@H](CCCNC(=N)N)C(=O)NCC(N)=O` [Compound 9, C20DA-gGlu3-Sar15-AEPipAc-Tyr-Phe-NMeLeu-Nle-Arg-Pro-Arg-Gly-NH2] (HELM PEPTIDE1{[O=C(O)CCCCCCCCCCCCCCCCCCC(=O)[*:2]].[gGlu].[gGlu].[gGlu].[Sar].[Sar].[Sar].[Sar].[Sar].[Sar].[Sar].[Sar].[Sar].[Sar].[Sar].[Sar].[Sar].[Sar].[Sar].[O=C(CN1CCN(CCN[*:1])CC1)[*:2]].Y.F.[meL].[Nle].R.P.R.G.[am]}$$$$V2.0), the pKi on human NMUR1 receptor was < 5.00. For the same molecule, the negative logarithm of the EC50 (pEC50) on human NMUR2 receptor is 8.55.
For `CCCC[C@H](NC(=O)[C@H](CC(C)C)N(C)C(=O)[C@H](Cc1ccccc1)NC(=O)[C@H](Cc1ccc(O)cc1)NC(=O)CN1CCN(CCNC(=O)CN(C)C(=O)CN(C)C(=O)CN(C)C(=O)CN(C)C(=O)CN(C)C(=O)CN(C)C(=O)CN(C)C(=O)CN(C)C(=O)CN(C)C(=O)CN(C)C(=O)CN(C)C(=O)CN(C)C(=O)CN(C)C(=O)CN(C)C(=O)CN(C)C(=O)CC[C@H](NC(=O)CC[C@H](NC(=O)CC[C@H](NC(=O)CCCCCCCCCCCCCCCCCCC(=O)O)C(=O)O)C(=O)O)C(=O)O)CC1)C(=O)N[C@@H](CCCNC(=N)N)C(=O)N(C)[C@@H](C)C(=O)N[C@@H](CCCNC(=N)N)C(=O)NCC(N)=O` [Compound 10, C20DA-gGlu3-Sar15-AEPipAc-Tyr-Phe-NMeLeu-Nle-Arg-NMeAla-Arg-Gly-NH2] (HELM PEPTIDE1{[O=C(O)CCCCCCCCCCCCCCCCCCC(=O)[*:2]].[gGlu].[gGlu].[gGlu].[Sar].[Sar].[Sar].[Sar].[Sar].[Sar].[Sar].[Sar].[Sar].[Sar].[Sar].[Sar].[Sar].[Sar].[Sar].[O=C(CN1CCN(CCN[*:1])CC1)[*:2]].Y.F.[meL].[Nle].R.[meA].R.G.[am]}$$$$V2.0) the same measures were < 5.00 and 8.39.
For `CCCC[C@H](NC(=O)[C@H](CC(C)C)N(C)C(=O)[C@H](Cc1ccccc1)NC(=O)[C@H](Cc1ccc(O)cc1)NC(=O)CN1CCN(CCNC(=O)CN(C)C(=O)CN(C)C(=O)CN(C)C(=O)CN(C)C(=O)CN(C)C(=O)CN(C)C(=O)CN(C)C(=O)CN(C)C(=O)CN(C)C(=O)CN(C)C(=O)CN(C)C(=O)CN(C)C(=O)CN(C)C(=O)CN(C)C(=O)CN(C)C(=O)CC[C@H](NC(=O)CC[C@H](NC(=O)CC[C@H](NC(=O)CCCCCCCCCCCCCCCCC(=O)O)C(=O)O)C(=O)O)C(=O)O)CC1)C(=O)N[C@@H](CCCNC(=N)N)C(=O)N(C)[C@@H](C)C(=O)N[C@@H](CCCNC(=N)N)C(=O)NCC(N)=O` [Compound 11, C18DA-gGlu3-Sar15-AEPipAc-Tyr-Phe-NMeLeu-Nle-Arg-NMeAla-Arg-Gly-NH2] (HELM PEPTIDE1{[O=C(O)CCCCCCCCCCCCCCCCC(=O)[*:2]].[gGlu].[gGlu].[gGlu].[Sar].[Sar].[Sar].[Sar].[Sar].[Sar].[Sar].[Sar].[Sar].[Sar].[Sar].[Sar].[Sar].[Sar].[Sar].[O=C(CN1CCN(CCN[*:1])CC1)[*:2]].Y.F.[meL].[Nle].R.[meA].R.G.[am]}$$$$V2.0) the same measures were < 5.00 and 8.55.
Consider `CCCC[C@H](NC(=O)[C@H](CC(C)C)N(C)C(=O)[C@H](Cc1ccccc1)NC(=O)[C@H](Cc1ccc(O)cc1)NC(=O)CN1CCN(CCNC(=O)CN(C)C(=O)CN(C)C(=O)CN(C)C(=O)CN(C)C(=O)CN(C)C(=O)CN(C)C(=O)CN(C)C(=O)CN(C)C(=O)CN(C)C(=O)CN(C)C(=O)CN(C)C(=O)CN(C)C(=O)CC[C@H](NC(=O)CC[C@H](NC(=O)CC[C@H](NC(=O)CCCCCCCCCCCCCCCCC(=O)O)C(=O)O)C(=O)O)C(=O)O)CC1)C(=O)N[C@@H](CCCNC(=N)N)C(=O)N(C)[C@@H](C)C(=O)N[C@@H](CCCNC(=N)N)C(=O)NCC(N)=O` [Compound 12, C18DA-gGlu3-Sar12-AEPipAc-Tyr-Phe-NMeLeu-Nle-Arg-NMeAla-Arg-Gly-NH2], for which the pKi on human NMUR1 receptor is < 5.00. Moreover, the pEC50 at human NMUR2 receptor is 8.57.
`CCCC[C@H](NC(=O)[C@H](CC(C)C)N(C)C(=O)[C@H](Cc1ccccc1)NC(=O)[C@H](Cc1ccc(O)cc1)NC(=O)CN1CCN(CCNC(=O)CN(C)C(=O)CN(C)C(=O)CN(C)C(=O)CN(C)C(=O)CN(C)C(=O)CN(C)C(=O)CN(C)C(=O)CN(C)C(=O)CN(C)C(=O)CC[C@H](NC(=O)CC[C@H](NC(=O)CC[C@H](NC(=O)CCCCCCCCCCCCCCCCCCC(=O)O)C(=O)O)C(=O)O)C(=O)O)CC1)C(=O)N[C@@H](CCCNC(=N)N)C(=O)N1CCC[C@H]1C(=O)N[C@@H](CCCNC(=N)N)C(=O)NCC(N)=O` [Compound 65, C20DA-gGlu3-Sar9-AEPipAc-Tyr-Phe-NMeLeu-Nle-Arg-Pro-Arg-Gly-NH2] (HELM PEPTIDE1{[O=C(O)CCCCCCCCCCCCCCCCCCC(=O)[*:2]].[gGlu].[gGlu].[gGlu].[Sar].[Sar].[Sar].[Sar].[Sar].[Sar].[Sar].[Sar].[Sar].[O=C(CN1CCN(CCN[*:1])CC1)[*:2]].Y.F.[meL].[Nle].R.P.R.G.[am]}$$$$V2.0) had a pKi at human NMUR1 receptor of 6.14. In addition, the pEC50 on human NMUR2 receptor was 8.55.
